Experimental data published in patent US11638716B2, “Compounds, compositions, and methods for the treatment of disease” (F-star Therapeutics, Inc., priority 2017, dated 2023).

Tests used:
STING KO cells = assay: IRF and NF-kB reporter activity in STING KO cells; type: cell-based; settings: 20 hours
Method: (§1) FIG. 21 depicts cells stably expressing both or either one of the reporters to measure IRF and NF-kB activity were treated with a range of concentrations of compound 1 or DMSO control for 20 hours. IRF activity was assessed using QUANTI-luc to measure levels of Lucia and NF-kB activity was determined by measure SEAP levels at 620-655 nm. % induction was calculated from fold change in luminescence/absorbance compared to DMSO treated sample. EC50 values are generated by curve fit in Xlfit.
as §1, with “22” for “21”, “2” for “1”
as §1, with “24” for “21”, “3” for “1”
as §1, with “27” for “21”, “4” for “1”
(§2) Cells grown in complete media were treated with various concentrations of a compound of the disclosure or DMSO control. Dual cells carry both secreted embryonic alkaline phosphatase (SEAP) reporter gene under the control of an IFN-β minimal promoter fused to five copies of the NF-kB consensus transcriptional response element to measure NF-kB activity and Lucia reporter gene under the control of an ISG54 minimal promoter to measure IRF activity. After 20 h incubation, IRF activity was assessed using QUANTI-luc to measure levels of Lucia and NF-kB activity was determined by measure SEAP levels at 620-655 nm. % induction was calculated from fold change in luminescence/absorbance compared to DMSO treated sample. EC50 values are generated by curve fit in Xlfit.

wild type STING = molecular target: T1, wild type STING (Homo sapiens, UniProt Q86WV6, H232R); assay: IRF/NF-kB reporter cells, wild type STING; type: cell-based; settings: 20 hours
T1 construct: expressed in transfected cells; host or cells: THP1-Dual-KI-STING-R232 (made from THP-Dual-STING KO cells)
T1 sequence (Q86WV6 whole entry H232R): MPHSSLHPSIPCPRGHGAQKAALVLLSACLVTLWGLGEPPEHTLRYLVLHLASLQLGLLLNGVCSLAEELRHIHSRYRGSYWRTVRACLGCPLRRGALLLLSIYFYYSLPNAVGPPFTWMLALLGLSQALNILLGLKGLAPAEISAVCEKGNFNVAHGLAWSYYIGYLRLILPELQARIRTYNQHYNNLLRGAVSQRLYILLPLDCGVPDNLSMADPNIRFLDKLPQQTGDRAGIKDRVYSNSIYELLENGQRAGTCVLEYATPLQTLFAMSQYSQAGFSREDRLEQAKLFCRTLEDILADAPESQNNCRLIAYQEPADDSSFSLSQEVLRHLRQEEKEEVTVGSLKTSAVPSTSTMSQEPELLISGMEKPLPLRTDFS
Method: as §1, with “22” for “21”, “2” for “1”
as §1, with “24” for “21”, “3” for “1”
as §1, with “27” for “21”, “4” for “1”
(§3) Cells grown in complete media were treated with various concentrations of a compound of the disclosure or DMSO control. […] After 20 h incubation, IRF activity was assessed using QUANTI-luc to measure levels of Lucia and NF-kB activity was determined by measure SEAP levels at 620-655 nm. % induction was calculated from fold change in luminescence/absorbance compared to DMSO treated sample. […]

[1] = molecular target: T2, R71H-G230A-R293Q (HAQ) variant of hSTING (Homo sapiens, UniProt Q86WV6, G230A/H232R/R293Q/R71H); assay: IRF/NF-kB reporter cells, STING HAQ variant; type: cell-based; settings: 20 hours
T2 construct: THP1-Dual-WT cells express STING-HAQ variant; endogenous in cells; host or cells: THP1-Dual-WT cells
T2 sequence (Q86WV6 whole entry R71H/G230A/H232R/R293Q): as the sequence (Q86WV6 whole entry H232R) above, with R71H, G230A, R293Q counted along it
Method: as §1, with “22” for “21”, “2” for “1”
as §1, with “24” for “21”, “3” for “1”
as §1, with “27” for “21”, “4” for “1”
as §3

wt-mSTING = molecular target: T3, wt-mSTING (Mus musculus, UniProt Q3TBT3); assay: IRF/NF-kB reporter cells, wt-mSTING; type: cell-based; settings: 20 hours
T3 construct: endogenous in cells
T3 sequence (Q3TBT3 1-378): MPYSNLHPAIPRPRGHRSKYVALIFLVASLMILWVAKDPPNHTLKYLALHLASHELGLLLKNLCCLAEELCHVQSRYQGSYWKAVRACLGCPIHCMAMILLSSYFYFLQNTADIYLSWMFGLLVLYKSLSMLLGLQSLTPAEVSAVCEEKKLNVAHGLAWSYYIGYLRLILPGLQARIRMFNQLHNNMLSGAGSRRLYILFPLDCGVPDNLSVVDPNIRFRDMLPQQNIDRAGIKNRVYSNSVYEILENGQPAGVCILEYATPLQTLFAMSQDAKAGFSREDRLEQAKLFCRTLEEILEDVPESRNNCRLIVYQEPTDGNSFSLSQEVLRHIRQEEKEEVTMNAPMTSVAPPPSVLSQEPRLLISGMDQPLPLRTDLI
Method: as §1, with “22” for “21”, “2” for “1”
as §1, with “24” for “21”, “3” for “1”
as §1, with “27” for “21”, “4” for “1”
as §3

ISGs/type I IFN response = ISGs/type I IFN response in normal Balb/C mice after intravenous dosing; type: in vivo, mouse; settings: intravenously 9 mg/kg
STING CTD = molecular target: T4, STING CTD (Homo sapiens, UniProt Q86WV6, H232R); assay: Thermal shift assay with STING CTD; type: binding; settings: 0.1 mg/mL STING CTD, compound 2 mM to 0.05 uM
T4 construct: Thermal shift assay was conducted with 0.1 mg/mL of STING CTD
T4 sequence (Q86WV6 135-379 H232R): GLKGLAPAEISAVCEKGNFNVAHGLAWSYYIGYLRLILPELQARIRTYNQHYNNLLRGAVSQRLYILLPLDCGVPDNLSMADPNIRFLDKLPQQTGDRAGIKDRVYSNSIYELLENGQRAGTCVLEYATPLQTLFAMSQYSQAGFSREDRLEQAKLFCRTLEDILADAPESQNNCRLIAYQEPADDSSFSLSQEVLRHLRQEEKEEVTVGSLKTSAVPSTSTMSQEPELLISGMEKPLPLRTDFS
Method: Fluorescence as a function of temperature was recorded using a Real Time PCR machine (Thermo Fisher). The temperature gradient was performed in the range of 25-80° C. with a ramp of 0.2° C. over the course of 60 minutes. Data was analyzed with the Thermal Shift Software (Thermo Fisher) and DSF analysis. The Derivative model was used to fit the fluorescence data to obtain the midpoint temperature for the thermal protein unfolding transition (Tm) using the curve-fitting software Prism.

[2] = system: RAW-Lucia-ISG-STING KO cells; assay: IRF-type I IFN secreted luciferase in RAW-Lucia-ISG-STING KO cells; type: cell-based; settings: compound alone, 19 hours
Method: FIG. 4 depicts RAW-Lucia-ISG-WT and RAW-Lucia-ISG-STING KO cells were stimulated with compound 2 or compound 4, alone for 19 hours. Activity of secreted luciferase (IRF-type I IFN activity) in cell culture supernatant was measured using Invivogen's Quanti-luc. Data is shown as fold induction over DMSO treated cells (mean±standard deviation of triplicate wells per stimulant). EC50 values were calculated using XLfit.

THP1-STING KO cells = assay: IRF activity in THP1-STING KO cells; type: cell-based; settings: compound alone, 20 hours
R232H variant of hSTING = R232H variant of hSTING (Homo sapiens, UniProt Q86WV6); assay: IRF/NF-kB reporter cells, STING R232H variant; type: cell-based; settings: 20 hours
Chain of R232H variant of hSTING (Q86WV6 whole entry, stated change not applied): as the sequence (Q86WV6 whole entry H232R) above, with R232H counted along it
Method: as §1, with “27” for “21”, “4” for “1”
as §2

MYD88 knock out cells = assay: IRF/NF-kB reporter activity in MYD88 knock out cells; type: cell-based; settings: 20 hours
Method: as §1, with “27” for “21”, “4” for “1”
as §2

IRF = IRF signaling reporter (Lucia), compound 4 and diastereomers; type: cell-based; settings: 20 hours
Method: (§4) Cells were treated with various concentrations of compound 3 and two of its diastereomers (4-A and 4-B), or DMSO control for 20 hours. Cells stably expressed one or both of the reporters used to measure IRF activity. IRF activity was assessed using QUANTI-luc to measure levels of Lucia. % induction was calculated from fold change in luminescence/absorbance compared to DMSO treated sample.
as §4, with “4” for “3”

| binding to STING (thermal shift) (STING CTD) | Structure (SMILES) | IRF activity in STING KO cells (STING KO cells) | NF-κβ in STING KO cells (STING KO cells) | activity against wild type STING (wild type STING) | activity against R71H-G230A-R293Q (HAQ) variant of hSTING [1] | activity against wt-mSTING (wt-mSTING) | upregulation of ISGs/type I IFN response (ISGs/type I IFN response) | IRF activity in STING KO cells [2] | IRF activity in THP1-STING KO cells (THP1-STING KO cells) | activity against R232H variant of hSTING (R232H variant of hSTING) | activity in MYD88 knock out cells (MYD88 knock out cells) | IRF signaling induction (IRF; FIG. 34A) | IRF signaling induction (IRF; FIG. 34C) |
| --- | --- | --- | --- | --- | --- | --- | --- | --- | --- | --- | --- | --- | --- |
| bind to STING with high affinity | N.N.Nc1ncnc2c1ncn2[C@@H]1O[C@@H]2COP(=O)(S)O[C@@H]3[C@H](F)[C@@H](COP(=O)(O)O[C@H]2[C@H]1F)O[C@H]3n1ccc(=O)[nH]c1=O (stereo partly drawn) [Compound 3] | did not induce | did not induce | possess activity | possess activity | possess activity | strongly induced upregulation |  |  |  |  |  |  |
|  | CCCCCCCCCCOc1ccc(C(=O)Oc2ccc(CSP3(=O)OC[C@H]4O[C@@H](n5cnc6c(N)ncnc65)[C@H](F)[C@@H]4OP(=O)(O)OC[C@H]4O[C@@H](n5ccc(=O)[nH]c5=O)[C@H](O3)[C@@H]4F)cc2)cc1 (stereo partly drawn) [Compound 4] | did not induce | did not induce | possess activity | possess activity | possess activity |  | Neither compound induced IRF activity | did not induced IRF activity | possess activity | possess activity | efficacious in inducing IRF signaling | efficacious in inducing IRF signaling |
